US4428956A, “4-Hydroxy-5-substituted-3-(2H)-isothiazolone-1,1-dioxide derivatives useful in treating urinary tract calcium oxalate lithiasis” (Merck & Co., Inc., priority 1980, dated 1984)

Target: T1, pig liver glycolate oxidase (Sus scrofa, UniProt I3LVF1)
T1 construct: The enzyme was pig liver glycolate oxidase; from tissue; host or cells: pig liver
T1 sequence (I3LVF1 1-370): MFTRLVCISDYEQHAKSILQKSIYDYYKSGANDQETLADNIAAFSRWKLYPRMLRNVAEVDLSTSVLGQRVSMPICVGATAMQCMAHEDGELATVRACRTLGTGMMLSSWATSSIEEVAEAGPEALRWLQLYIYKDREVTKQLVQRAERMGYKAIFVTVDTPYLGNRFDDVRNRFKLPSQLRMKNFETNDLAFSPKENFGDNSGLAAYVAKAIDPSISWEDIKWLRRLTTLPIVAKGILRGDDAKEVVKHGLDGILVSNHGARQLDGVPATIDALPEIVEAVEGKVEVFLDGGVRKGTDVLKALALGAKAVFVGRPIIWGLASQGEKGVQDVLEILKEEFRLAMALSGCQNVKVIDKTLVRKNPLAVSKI
Test: Glycolate Oxidase Enzyme Inhibition
Type: biochemical
Conditions: 25° C., 0.10 M phosphate buffer, pH 7.0, 3 mM EDTA; 5×10^-5 M sodium 2,6-dichlorophenol-indophenol, 2×10^-4 M sodium glycolate; initial rates 1 to 3 min., 600 nm
Method: The usefulness of the compounds of the present invention in treating urinary tract, especially renal, calcium oxalate lithiasis, was shown by the ability of those compounds to inhibit the glycolate oxidase enzyme. […] The activity of the enzyme, in turn, was measured by following the rate of reduction of sodium 2,6-dichlorophenol-indophenol by sodium glycolate in the presence of the enzyme. The enzyme was pig liver glycolate oxidase. The reaction was followed spectrophotometrically at 600 nm. The assay was conducted at 25° C. in a 0.10 M phosphate buffer, pH 7.0, containing 3 mM EDTA. Initial substrate concentrations were 5×10^-5 M of sodium 2,6-dichlorophenol-indophenol and 2×10^-4 M of sodium glycolate. Reactions were initiated by the addition of enzyme. Initial rates during the period from 1 to 3 min. after the addition of enzyme were recorded on a Beckman Acta M-VI spectrophotometer. One control was run simultaneously with three test reactions, and all initial rates were adjusted to a common control rate. For further details of this procedure, see Randall et al., J. Med. Chem. 22, 6, 612 (1979).

IC50: 2100 nM
Compound: O=C1NS(=O)(=O)C(c2ccccc2)=C1O [4-Hydroxy-5-phenyl-3(2H)-isothiazolone-1,1-dioxide]
